Test results published in ChEMBL document CHEMBL1123212 (J Med Chem, 1986).

How the values were obtained:
Rattus norvegicus [1] = organism: Rattus norvegicus; test: animal or person
Description: In vivo inhibition of apomorphine induced hyperactivity in rats.

Rattus norvegicus [2] = organism: Rattus norvegicus; test: animal or person; remark: listed apart in the source
Description: In vivo inhibition of apomorphine induced stereotypy in rats.

in vivo = details: rat, ip
Description: Compound was tested for its acute toxicity in rat after ip administration

Rattus norvegicus [3] = test: Compound was tested for anti-dopamine activity in vivo by its ability to inhibit apomorphine induced hyperactivity in rat; type: functional
Rattus norvegicus [4] = test: Compound was tested for anti-dopamine activity in vivo by its ability to inhibit apomorphine induced stereotypy in rat; type: functional

Row | SMILES | ED50 (Rattus norvegicus [1]) | ED50 (Rattus norvegicus [2]) | LD50 (in vivo) | ED50 (Rattus norvegicus [3]) | ED50 (Rattus norvegicus [4])
1 | CCN1CCC[C@H]1CNC(=O)c1c(O)c(Br)cc(Cl)c1OC | 0.95 µmol/kg | 1.35 µmol/kg |  |  | 
2 | CCN1CCC[C@H]1CNC(=O)c1c(O)c(Cl)cc(Cl)c1OC [RACLOPRIDE] | 0.13 µmol/kg | 1.7 µmol/kg | 660 µmol/kg |  | 
3 | CCN1CCC[C@H]1CNC(=O)c1cc(Br)cc(Br)c1O | 28 µmol/kg | > 40 µmol/kg |  |  | 
4 | O=C(CCCN1CCC(O)(c2ccc(Cl)cc2)CC1)c1ccc(F)cc1 [HALOPERIDOL] |  |  | 93 µmol/kg | 0.29 µmol/kg | 0.27 µmol/kg
5 | CCc1cc(Cl)c(OC)c(C(=O)NC[C@@H]2CCCN2CC)c1O [ETICLOPRIDE] | 0.032 µmol/kg | 0.19 µmol/kg | 330 µmol/kg |  | 
6 | CCN1CCC[C@@H]1CNC(=O)c1c(O)c(Cl)cc(Cl)c1OC | 1.07 µmol/kg | 32 µmol/kg |  |  | 
7 | CCN1CCC[C@H]1CNC(=O)c1c(O)c(Br)cc(Br)c1OC | 0.65 µmol/kg | 1.48 µmol/kg | 450 µmol/kg |  | 
8 | CCN1CCC[C@H]1CNC(=O)c1c(O)c(C)cc(Cl)c1OC | 0.74 µmol/kg | 1.32 µmol/kg |  |  | 
9 | CCc1cc(Br)c(OC)c(C(=O)NC[C@@H]2CCCN2CC)c1O | 0.085 µmol/kg | 0.47 µmol/kg | 320 µmol/kg |  | 
10 | CCc1ccc(OC)c(C(=O)NC[C@@H]2CCCN2CC)c1O | 0.12 µmol/kg | 0.28 µmol/kg | 370 µmol/kg |  | 
11 | CCc1cc(Br)c(O)c(C(=O)NC[C@@H]2CCCN2CC)c1OC | 0.87 µmol/kg | 1.45 µmol/kg |  |  | 
12 | CCc1cc(F)c(OC)c(C(=O)NC[C@@H]2CCCN2CC)c1O | 0.065 µmol/kg | 0.31 µmol/kg |  |  | 
13 | CCc1cc(Cl)c(O)c(C(=O)NC[C@@H]2CCCN2CC)c1OC | 2.5 µmol/kg | 1.51 µmol/kg |  |  | 
14 | CCCc1cc(Cl)c(OC)c(C(=O)NC[C@@H]2CCCN2CC)c1O | 0.1 µmol/kg | 0.35 µmol/kg |  |  | 
15 | CCc1cc(CC)c(OC)c(C(=O)NC[C@@H]2CCCN2CC)c1O | 0.076 µmol/kg | 0.46 µmol/kg | 530 µmol/kg |  | 
16 | CCN1CCC[C@H]1CNC(=O)c1cc(Br)cc(Br)c1OC | 0.66 µmol/kg | 2.69 µmol/kg |  |  | 
17 | CCN1CCC[C@H]1CNC(=O)c1c(O)c(C)cc(C)c1OC | 1.86 µmol/kg | 3.1 µmol/kg |  |  | 
18 | CCN1CCC[C@H]1CNC(=O)c1c(O)c(Br)cc(F)c1OC | 0.16 µmol/kg | 0.42 µmol/kg |  |  | 
